According to patent US20250136564A1, “PROTEIN TYROSINE PHOSPHATASE INHIBITORS AND USES THEREOF” (Nerio Therapeutics, Inc., priority 2022, published 2025):

Assays:
[1] = molecular target: full-length human PTPN2 (TC45) (1-387) protein (Homo sapiens (Human), UniProt P17706); assay: Enzymatic assay, full-length PTPN2 DiFMUP assay; format: biochemical; settings: 0.5 nM PTPN2, 100 μM DiFMUP, 30 min at room temperature
From the text: Example A: Enzymatic Assay Used to Determine Potency of PTPN2 Inhibitors
Compounds were subsequently added using a Tecan D300e dispenser. […] A four-parameter curve fit was used to determine IC50 values from % inhibition data.

[2] = tested on: murine B16F10 melanoma cell line; assay: B16F10 IFNγ-induced cellular growth inhibition assay (xCELLigence RTCA); format: cell-based; settings: Mus musculus, B16-F10, 48 h; read-out: B16 IFNγ Mediated Growth Inhibition Assay: AVG IC50
Description: Example B: B16F10 Cellular Growth Inhibition Assay
Compound activity was determined using an interferon gamma (IFNγ)-induced cellular growth inhibition assay with the murine B16F10 melanoma cell line on an Agilent xCELLigence Real-Time Cell Analysis platform (RTCA). RTCA E-Plate View 96 plates (Agilent, 300601010) were pre-equilibrated with 50 μL of assay media (DMEM+10% FBS, Gibco 10566-024, Gibco 10082-147) at 37° C., in a humidified incubator before taking an initial measurement of impedance (sweep). B16F10 cells cultured in assay media were dissociated with TrypLE Express (Gibco 12605-010) for five minutes at 37° C., diluted in 3 volumes of assay buffer, centrifuged for 5 minutes at 500×g at room temperature before diluting cells to 7,700 cells/mL in assay media, plating 130 μL/well (1,000 cells/well) in the inner 60 wells of the assay plate, and adding 150 μL of assay media to the outer wells of the plate. Cells were incubated at room temperature for 20 min to allow cells to settle before placing them in the xCELLigence reader and incubating overnight at 37° C., sweeping wells every 15 minutes. After 24 hours, well readings were paused, plates were removed from the incubator and compounds were added using a Tecan D300e dispenser. All wells were normalized to a final concentration of 0.5% DMSO. Following a 30 min incubation at 37° C., recombinant mouse IFNγ (R&D Systems™ 485 MI100) was diluted to 10 ng/ml in assay media and 20 μL was added to assay wells (1 ng/mL final concentration). Assay plates were placed in the xCELLigence reader and swept every 15 minutes. After 48 hours, well readings were normalized to the time point immediately preceding compound addition and the area under the growth curve (AUC) was calculated by the RTCA software and exported.

Sequence of full-length human PTPN2 (TC45) (1-387) protein (P17706 other isoform, or with tags, fused parts or gaps): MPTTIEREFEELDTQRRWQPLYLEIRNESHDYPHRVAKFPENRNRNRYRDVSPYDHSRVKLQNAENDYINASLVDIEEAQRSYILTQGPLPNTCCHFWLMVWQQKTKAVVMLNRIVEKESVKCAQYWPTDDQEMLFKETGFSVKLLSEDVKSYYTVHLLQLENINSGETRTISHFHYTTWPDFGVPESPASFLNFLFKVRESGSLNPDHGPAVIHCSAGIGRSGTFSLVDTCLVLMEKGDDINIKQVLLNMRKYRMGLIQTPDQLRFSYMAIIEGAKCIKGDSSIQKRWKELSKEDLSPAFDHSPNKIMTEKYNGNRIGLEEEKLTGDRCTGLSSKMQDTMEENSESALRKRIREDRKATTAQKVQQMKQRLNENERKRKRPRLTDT

Row | SMILES | IC50 [1] [nM] | IC50 [2] [nM]
1 | COc1cc2c(c(F)c1N1CC(=O)NS1(=O)=O)CC(NCCC(C)C)CN2C (stereo not drawn) [Example 1, 5-(5-fluoro-3-(isopentylamino)-7-methoxy-1-methyl-1,2,3,4-tetrahydroquinolin-6-yl)-1,2,5-thiadiazolidin-3-one 1,1-dioxide] | > 30000 | –
2 | CC(C)CCNC1CNc2cc(O)c(N3CC(=O)NS3(=O)=O)c(F)c2C1 (stereo not drawn) [Example 2, 5-(5-fluoro-7-hydroxy-3-(isopentylamino)-1,2,3,4-tetrahydroquinolin-6-yl)-1,2,5-thiadiazolidin-3-one 1,1-dioxide] | 13 | 1450
3 | O=C1CN(c2c(O)cc3c(c2F)CCCN3)S(=O)(=O)N1 [Example 3, 5-(5-fluoro-7-hydroxy-1,2,3,4-tetrahydroquinolin-6-yl)-1,2,5-thiadiazolidin-3-one 1,1-dioxide] | 131 | 3330
4 | CN1CCCc2c1cc(O)c(N1CC(=O)NS1(=O)=O)c2F [Example 4, 5-(5-fluoro-7-hydroxy-1-methyl-1,2,3,4-tetrahydroquinolin-6-yl)-1,2,5-thiadiazolidin-3-one 1,1-dioxide] | 875 | 12700
5 | CCN1CCCc2c1cc(O)c(N1CC(=O)NS1(=O)=O)c2F [Example 5] | 878 | –
6 | CC(C)CN1CCCc2c1cc(O)c(N1CC(=O)NS1(=O)=O)c2F [Example 6] | 959 | –
7 | O=C1CN(c2c(O)cc3c(c2F)CCCN3Cc2ccccc2)S(=O)(=O)N1 [Example 7] | 532 | –
8 | CC(C)CCN1CCCc2c1cc(O)c(N1CC(=O)NS1(=O)=O)c2F [Example 8] | 957 | –
9 | O=C1CN(c2c(O)cc3c(c2F)CCCN3CCc2ccccc2)S(=O)(=O)N1 [Example 9] | 1620 | –
